Reference: patent US10017504B2, “Piperidine isoxazole and isothiazole orexin receptor antagonists” (MERCK SHARP & DOHME CORP., priority 2014, dated 2018)

Molecular target: human orexin-2 receptor (Homo sapiens (Human), UniProt O43614)
Test: FLIPR Ca2+ Flux Assay, orexin-2 receptor
Type: cell-based
Conditions: CHO cells expressing the human orexin-2 receptor; agonist 70 pM Ala-6,12 human orexin-A; read-out: hOX2 FLIPR IC50
Protocol: In a typical experiment the OX1 and OX2 receptor antagonistic activity of the compounds of the present invention was determined in accordance with the following experimental method. For intracellular calcium measurements, Chinese hamster ovary (CHO) cells expressing the rat orexin-1 receptor or the human orexin-2 receptor, are grown in Iscove's modified DMEM containing 2 mM L-glutamine, […], 1% hypoxanthine-thymidine supplement, 100 U/ml penicillin, 100 μg/ml streptomycin and 10% heat-inactivated fetal calf serum (FCS). The cells are seeded at 20,000 cells/well into Becton-Dickinson black 384-well clear bottom sterile plates coated with poly-D-lysine. All reagents are from GIBCO-Invitrogen Corp. The seeded plates are incubated overnight at 37° C. and 5% CO2. Ala-6,12 human orexin-A as the agonist is prepared as a 1 mM stock solution in 1% bovine serum albumin (BSA) and diluted in assay buffer (HBSS containing 20 mM HEPES, 0.1% BSA and 2.5 mM probenecid, pH7.4) for use in the assay at a final concentration of 70 pM. Test compounds are prepared as 10 mM stock solution in DMSO, then diluted in 384-well plates, first in DMSO, then assay buffer. On the day of the assay, cells are washed 3 times with 100 μl assay buffer and then incubated for 60 min (37° C., 5% CO2) in 60 μl assay buffer containing 1 μM Fluo-4AM ester, 0.02% pluronic acid, and 1% BSA. The dye loading solution is then aspirated and cells are washed 3 times with 100 μl assay buffer. 30 μl of that same buffer is left in each well. Within the Fluorescent Imaging Plate Reader (FLIPR, Molecular Devices), test compounds are added to the plate in a volume of 25 μl, incubated for 5 min and finally 25 μl of agonist is added. Fluorescence is measured for each well at 1 second intervals for 5 minutes and the height of each fluorescence peak is compared to the height of the fluorescence peak induced by 70 pM Ala-6,12 orexin-A with buffer in place of antagonist. […] The intrinsic orexin receptor antagonist activity of a compound which may be used in the present invention may be determined by these assays.

human orexin-2 receptor, sequence (O43614 whole entry): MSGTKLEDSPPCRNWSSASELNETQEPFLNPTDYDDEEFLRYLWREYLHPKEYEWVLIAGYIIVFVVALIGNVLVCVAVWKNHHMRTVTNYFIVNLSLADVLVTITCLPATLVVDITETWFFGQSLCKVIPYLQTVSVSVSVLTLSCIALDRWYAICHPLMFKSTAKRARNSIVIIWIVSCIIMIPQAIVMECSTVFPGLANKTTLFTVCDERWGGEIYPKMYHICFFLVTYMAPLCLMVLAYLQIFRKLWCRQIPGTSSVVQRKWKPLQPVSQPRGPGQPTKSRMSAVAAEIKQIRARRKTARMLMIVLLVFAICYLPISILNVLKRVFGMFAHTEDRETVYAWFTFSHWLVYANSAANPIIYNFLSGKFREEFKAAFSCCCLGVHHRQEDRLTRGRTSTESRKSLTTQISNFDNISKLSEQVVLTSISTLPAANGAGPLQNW

Structure (SMILES)	IC50
C[C@@H]1CC[C@@H](c2cc(C(C)(C)O)sn2)CN1C(=O)c1cscc1-c1ncccn1 [Example 65, 2-(3-{(3R,6R)-6-Methyl-1-[(4-pyrimidin-2-ylthiophen-3-yl)carbonyl]piperidin-3-yl}isothiazol-5-yl)propan-2-ol]	46.8 nM
CC(C)C(C)(O)c1cc([C@@H]2CC[C@@H](C)N(C(=O)c3ccccc3-n3nccn3)C2)no1 (single isomer, unassigned) [Example 16]	24.3 nM
C[C@@H]1CC[C@@H](c2cc([C@@H](O)C(F)(F)F)no2)CN1C(=O)c1ccsc1-n1nccn1 [Example 42, (1R)-2,2,2-Trifluoro-1-{5-[(3R,6R)-6-methyl-1-{[2-(2H-1,2,3-triazol-2-yl)thiophen-3-yl]carbonyl}piperidin-3-yl]isoxazol-3-yl}ethanol]	154 nM
C[C@@H]1CC[C@@H](c2cc(C(C)(C)O)sn2)CN1C(=O)c1ccccc1-n1nccn1 [Example 58, 2-{3-[(3R,6R)-6-Methyl-1-{[2-(2H-1,2,3-triazol-2-yl)phenyl]carbonyl}piperidin-3-yl]isothiazol-5-yl}propan-2-ol]	13.9 nM
C[C@@H]1CC[C@@H](c2cc(C(C)(C)O)on2)CN1C(=O)c1cc(F)ccc1-n1nccn1 [Example 4, (5-Fluoro-2-(2H-1,2,3-triazol-2-yl)phenyl)((2R,5R)-5-(5-(2-hydroxypropan-2-yl)isoxazol-3-yl)-2-methylpiperidin-1-yl)methanone]	278 nM
CCOc1ccccc1C(=O)N1C[C@H](c2cc(C(C)(C)O)no2)CC[C@H]1C [Example 31, 2-(5-{(3R,6R)-1-[(2-Ethoxyphenyl)carbonyl]-6-methylpiperidin-3-yl}isoxazol-3-yl)propan-2-ol]	178 nM
C[C@@H]1CC[C@@H](c2cc(C(C)(C)O)sn2)CN1C(=O)c1ccccc1-n1ncnn1 [Example 60, 2-{3-[(3R,6R)-6-Methyl-1-{[2-(2H-tetrazol-2-yl)phenyl]carbonyl}piperidin-3-yl]isothiazol-5-yl}propan-2-ol]	63.8 nM
C[C@@H]1CC[C@@H](c2cc(C(C)(C)O)no2)CN1C(=O)c1ccccc1-n1ncnn1 [Example 32, 2-{5-[(3R,6R)-6-Methyl-1-{[2-(2H-tetrazol-2-yl)phenyl]carbonyl}piperidin-3-yl]isoxazol-3-yl}propan-2-ol]	124 nM
C[C@@H]1CC[C@@H](c2cc(C(C)(C)O)no2)CN1C(=O)c1cc(Cl)ccc1-n1nccn1 [Example 27, 2-{5-[(3R,6R)-1-{[5-Chloro-2-(2H-1,2,3-triazol-2-yl)phenyl]carbonyl}-6-methylpiperidin-3-yl]isoxazol-3-yl}propan-2-ol]	604 nM
COC(=O)c1ccccc1C(=O)N1C[C@H](c2cc(C(C)(C)O)sn2)CC[C@H]1C [Example 67, Methyl 2-({(2R,5R)-5-[5-(1-hydroxy-1-methylethyl)isothiazol-3-yl]-2-methylpiperidin-1-yl}carbonyl)benzoate]	43.6 nM
C[C@@H]1CC[C@@H](c2cc(C(C)(C)O)sn2)CN1C(=O)c1ccccc1C1(C#N)CC1 [Example 62, 1-[2-({(2R,5R)-5-[5-(1-Hydroxy-1-methylethyl)isothiazol-3-yl]-2-methylpiperidin-1-yl}carbonyl)phenyl]cyclopropanecarbonitrile]	19.1 nM
C[C@@H]1CC[C@@H](c2cc(C(C)(C)O)on2)CN1C(=O)c1ccccc1C1(C#N)CC1 [Example 2, 1-(2-((2R,5R)-5-(5-(2-Hydroxypropan-2-yl)isoxazol-3-yl)-2-methylpiperidine-1-carbonyl)phenyl)cyclopropanecarbonitrile]	104 nM
C[C@@H]1CC[C@@H](c2cc(C(C)(C)O)sn2)CN1C(=O)c1ccc(F)cc1-n1nccn1 [Example 61, 2-{3-[(3R,6R)-1-{[4-Fluoro-2-(2H-1,2,3-triazol-2-yl)phenyl]carbonyl}-6-methylpiperidin-3-yl]isothiazol-5-yl}propan-2-ol]	18.6 nM
C[C@@H]1CC[C@@H](c2cc(C(C)(C)O)no2)CN1C(=O)c1ncccc1-c1ccccc1 [Example 34, 2-(5-{(3R,6R)-6-Methyl-1-[(3-phenylpyridin-2-yl)carbonyl]piperidin-3-yl}isoxazol-3-yl)propan-2-ol]	264 nM
COCCc1ccccc1C(=O)N1C[C@H](c2cc(C(C)(C)O)sn2)CC[C@H]1C [Example 70, 2-{3-[(3R,6R)-1-{[2-(2-methoxyethyl)phenyl]carbonyl}-6-methylpiperidin-3-yl]isothiazol-5-yl}propan-2-ol]	935 nM
C[C@@H]1CC[C@@H](c2cc(C(C)(O)C3CC3)no2)CN1C(=O)c1ccccc1-n1nccn1 (single isomer, unassigned) [Example 53]	34.3 nM
C[C@@H]1CC[C@@H](c2cc([C@H](O)C(F)(F)F)no2)CN1C(=O)c1ccsc1-n1nccn1 [Example 43, (1S)-2,2,2-trifluoro-1-{5-[(3R,6R)-6-methyl-1-{[2-(2H-1,2,3-triazol-2-yl)thiophen-3-yl]carbonyl}piperidin-3-yl]isoxazol-3-yl}ethanol]	162 nM
C[C@@H]1CC[C@@H](c2cc(C(C)(C)O)sn2)CN1C(=O)c1ccccc1-c1ncccn1 [Example 63, 2-(3-{(3R,6R)-6-Methyl-1-[(2-pyrimidin-2-ylphenyl)carbonyl]piperidin-3-yl}isothiazol-5-yl)propan-2-ol]	42.3 nM
C[C@@H]1CC[C@@H](c2cc(C(C)(C)O)no2)CN1C(=O)c1cccnc1-c1ccccc1 [Example 33, 2-(5-{(3R,6R)-6-Methyl-1-[(2-phenylpyridin-3-yl)carbonyl]piperidin-3-yl}isoxazol-3-yl)propan-2-ol]	134 nM
C[C@@H]1CC[C@@H](c2cc(C3(O)CCC3)on2)CN1C(=O)c1ccccc1-n1nccn1 [Example 13, 1-{3-[(3R,6R)-6-Methyl-1-{[2-(2H-1,2,3-triazol-2-yl)phenyl]carbonyl}piperidin-3-yl]isoxazol-5-yl}cyclobutanol]	635 nM
COC(C)(C)c1cc([C@@H]2CC[C@@H](C)N(C(=O)c3ccccc3-n3nccn3)C2)on1 [Example 57, (2R,5R)-5-[3-(1-Methoxy-1-methylethyl)isoxazol-5-yl]-2-methyl-1-{[2-(2H-1,2,3-triazol-2-yl)phenyl]carbonyl}piperidine]	14.4 nM
C[C@@H]1CC[C@@H](c2cc(C(C)(C)O)no2)CN1C(=O)c1ccccc1-c1ncccn1 [Example 22, 2-(5-{(3R,6R)-6-Methyl-1-[(2-pyrimidin-2-ylphenyl)carbonyl]piperidin-3-yl}isoxazol-3-yl)propan-2-ol]	51.4 nM
C[C@@H]1CC[C@@H](c2cc([C@H](O)C(F)(F)F)no2)CN1C(=O)c1ccccc1-c1ncccn1 [Example 51, (1S)-2,2,2-trifluoro-1-(5-{(3R,6R)-6-methyl-1-[(2-pyrimidin-2-ylphenyl)carbonyl]piperidin-3-yl}isoxazol-3-yl)ethanol]	146 nM
C[C@@H]1CC[C@@H](c2cc([C@@H](O)C(F)(F)F)no2)CN1C(=O)c1ccccc1-c1ncccn1 [Example 50, (1R)-2,2,2-Trifluoro-1-(5-{(3R,6R)-6-methyl-1-[(2-pyrimidin-2-ylphenyl)carbonyl]piperidin-3-yl}isoxazol-3-yl)ethanol]	110 nM
C[C@@H]1CC[C@@H](c2cc([C@H](O)C(F)(F)F)no2)CN1C(=O)c1ccccc1C1(C#N)CC1 [Example 45, 1-(2-{[(2R,5R)-2-Methyl-5-{3-[(1S)-2,2,2-trifluoro-1-hydroxyethyl]isoxazol-5-yl}piperidin-1-yl]carbonyl}phenyl)cyclopropanecarbonitrile]	41.2 nM
CCC(O)(CC)c1cc([C@@H]2CC[C@@H](C)N(C(=O)c3ccccc3-n3nccn3)C2)no1 [Example 8, (2-(2H-1,2,3-triazol-2-yl)phenyl)((2R,5R)-5-(5-(3-hydroxypentan-3-yl)isoxazol-3-yl)-2-methylpiperidin-1-yl)methanone]	552 nM
CCOc1ncccc1C(=O)N1C[C@H](c2cc(C(C)(C)O)no2)CC[C@H]1C [Example 23, 2-(5-{(3R,6R)-1-[(2-Ethoxypyridin-3-yl)carbonyl]-6-methylpiperidin-3-yl}isoxazol-3-yl)propan-2-ol]	268 nM
CC[C@@](C)(O)c1cc([C@@H]2CC[C@@H](C)N(C(=O)c3ccccc3-n3nccn3)C2)no1 [Example 11, (2-(2H-1,2,3-Triazol-2-yl)phenyl)((2R,5R)-5-(5-((R)-2-hydroxybutan-2-yl)isoxazol-3-yl)-2-methylpiperidin-1-yl)methanone]	41.4 nM
C[C@@H]1CC[C@@H](c2cc(C(C)(C)O)sn2)CN1C(=O)c1cccnc1OCC(F)F [Example 69, 2-{3-[(3R,6R)-1-{[2-(2,2-Difluoroethoxy)pyridin-3-yl]carbonyl}-6-methylpiperidin-3-yl]isothiazol-5-yl}propan-2-ol]	42.8 nM
